Consider one compound from patent US20170334919A1, “2-((4-AMINO-3-(3-FLUORO-5-HYDROXYPHENYL)-1H-PYRAZOLO[3,4-D]PYRIMIDIN-1 -YL)METHYL)-3-(2-(TRIFLUORO-MET HYL)BENZYL)QUINAZOLIN-4(3H)-ONE DERIVATIVES AND THEIR USE AS PHOSPHOINOSITIDE 3-KINASE INHIBITORS” (RESPIVERT LTD., priority 2013, published 2017).

Assay [1] has as its system IFNγ-primed U937 cells. Nature of the assay: Superoxide anion production assay (zymosan-induced ROS). Type of assay: cell-based. Conditions: Homo sapiens, U-937; read-out: REC50, Zymosan-induced ROS production in IFNγ-primed U937 cells. Here is the method:
As a means of assessing PI3Kδ dependent cell function, superoxide anion production in IFNγ-primed U937 cells was evaluated by a chemiluminescence assay. The U937 cells (purchased from ATCC, Manassas, Va.) were maintained in RPMI 1640 (Invitrogen Ltd., Paisley, UK) with 10% FCS at 37° C. The cells were suspended at a density of 10^7cells/mL in 40 mL 10% FCS RPMI 1640, and treated with 20 μL of 100 μg/mL IFNγ solution (final concentration: 50 ng/mL), and incubated at 37° C., 5% CO2 for 4 days.
IFNγ-primed U937 cells were seeded at 0.2×10^6 cells/well in a 96-well plate, and pre-incubated with test compounds for 2 hr in starvation media (0.5% FCS RPMI1640-phenol red free). Zymosan A (10 mg) from Saccharomyses cerevisiae (ex Sigma-Aldlich) was resuspended in 1 mL of 150 mM NaCl and boiled at 100° C. for 15 min. After boiling, Zymosan particles were washed with 1 mL of PBS twice, and incubated with 0.5 mL of BioParticles™ opsonized reagents (Life technologies) for 60 min at 37° C. […] Chemiluminescence indicating released superoxide anion was measured every 15 min up to 60 min by luminometric measurement (Varioskan® Flash, Thermo-Fisher Scientific).
The data at 60 min after incubation was used for analysis. […] The relative EC50 values were calculated from the concentration-response curves generated by the serial dilutions of the test compounds using XL-Fit (idbs, Guildford, UK).

Assay [2] relates to THP1 cells. Nature of the assay: Chemotaxis to MCP1. Type of assay: cell-based. The conditions noted are these: Homo sapiens, THP-1; read-out: REC50, THP1 cell chemotaxis to MCP1. The procedure:
As a means of assessing PI3K γ dependent cell function, THP1 cell chemotaxis to MCP-1 was evaluated using a 48 well-chemotaxis chamber. THP1 cells from a human leukemic monocyte lymphoma cell line, (purchased from ATCC Manassas, Va.) were maintained in RPMI 1640 (Invitrogen Ltd., Paisley, UK) with 10% FCS at 37° C. Cells were re-suspended in 0.5% BSA/RPM11640 (2×10^6 cells/mL) and incubated for 10 min at 37° C., 5% CO2. Cell suspension aliquots (500 μL) were then treated either with compounds in neat DMSO or with DMSO as vehicle (2.5 μL) for 1hr (37° C., 5% CO2).
MCP1 (50 nM) was prepared in 0.5% BSA/RPM11640. MCP1 solution (50 μL) was added to each well in the bottom plate of a 48-well chemotaxis chamber (AP48, NeuroProbe Inc., Gaithersburg, Md.). A polycarbonate membrane (8 μm) was mounted on the bottom chamber, and then the top plate was mounted on the bottom chamber and filter membrane. […]
A solution of MTT (50 μL) in 10% FCS phenol red-free RPM11640 was added to each well, and the plate was incubated for 2 hr (37° C., 5% CO2). Neat DMSO (100 μL) was added to each well to extract formazan formed from MTT and the plates were shaken lightly for 1 hr prior to measuring the absorbance at 595 nm (Varioskan® Flash, Thermo-Fisher Scientific). […] Relative EC50 values were determined from concentration-inhibition curves using XL-Fit (idbs, Guildford, UK).

Assay [3] relates to ovalbumin-induced airway eosinophilia and neutrophilia in ovalbumin sensitized mice. In words: Ovalbumin-induced airway eosinophil and neutrophil accumulation in mice. The conditions noted are these: 2 hr prior to final OVA challenge. Type of assay: in vivo, BALB/c mice. Here is the method: BALB/c mice (6-8 weeks old) were immunized with OVA (10 μg/mouse i.p.) on days 0 and 7. In order to elicit a local inflammatory response in the lung, mice were repeatedly challenged between days 13-15 with a nebulised solution of ovalbumin (10 mg/mL, 30 min exposure, De Vilibiss Ultraneb 2000). On day 17 each animal received via intra-tracheal administration of either vehicle or test compound 2 hr prior to the final OVA challenge. Animals were anaesthetized 8 hr later before undergoing a tracheotomy. BAL was obtained by instilling PBS (1 mL) into the lungs, which was then withdrawn. This procedure was repeated to provide approximately 2 mL of lavage fluid. Total cell numbers in the BALF samples were measured using a haemocytometer. Cytospin smears of the BALF samples were prepared by centrifugation at 200 rpm for 5 min at RT and stained using a DiffQuik stain system (Dade Behring) for differential cell counts. Cells were counted using oil immersion microscopy. Data is expressed as differential number of cells per mL of […] (mean±S.E.M).

In assay [4] the test system is LPS-induced airway neutrophilia in mice. In words: LPS-induced airway neutrophil accumulation in mice. Type of assay: in vivo, BALB/c mice. Here is the method: Non-fasted BALB/c mice (6-8 weeks old) were dosed with vehicle or with test compound by intra-tracheal administration (dose volume 20 μL) at time points T=−2 hr, −8 hr, or −12 hr with respect to the start of LPS treatment. The LPS was prepared in a solution of 0.5 mg/mL and aerosolised using a De Vibliss ultrasonic nebuliser 2000 (7 mL during 30 min exposure). At eight hr after LPS challenge, the trachea was cannulated and bronchoalveolar lavage fluid (BALF) extracted by infusing and then withdrawing PBS (1 mL) into the lungs via the tracheal catheter. This procedure was repeated to give a yield of approximately 2 mL lavage fluid. Total cell numbers in the BALF samples were measured using a haemocytometer. Cytospin smears of the BALF samples were prepared by centrifugation at 1200 rpm for 2 min at RT and stained using a DiffQuik stain system (Dade Behring) for differential cell counts. Cells were counted using oil immersion microscopy. Data are expressed as neutrophil number of cells per mL of BALF (mean±S.E.M).

Setting [5] is: 0.2 mg/mL intra-tracheal, pre-dose time 8 hr.

Turning to `COCCOCCOCC#Cc1cccc2nc(Cn3nc(-c4cc(O)cc(F)c4)c4c(N)ncnc43)n(Cc3ccccc3C(F)(F)F)c(=O)c12` [Compound (I), 2-((4-Amino-3-(3-fluoro-5-hydroxyphenyl)-1H-pyrazolo[3,4-d]pyrimidin-1-yl)methyl)-5-(3-(2-(2-methoxyethoxy)ethoxy)prop-1-yn-1-yl)-3-(2-(trifluoromethyl)benzyl)quinazolin-4(3H)-one], the results for the EC50 in assay [1] and in assay [2] were 11.8 nM and 33.9 nM, respectively. The figures for the “Cell numbers in BALF, Eosinophils, % inhibition” value in assay [3] (0.05 mg/mL intra-tracheal), in assay [3] (0.2 mg/mL intra-tracheal) and in assay [3] (1 mg/mL intra-tracheal) were 3.2 (20) %, 0.9 (85) % and 91%, respectively. In addition, the “Cell numbers in BALF, Neutrophils, % inhibition” value in assay [3] (0.05 mg/mL intra-tracheal) is 0.4 (18) %; in assay [3] (0.2 mg/mL intra-tracheal) it was 0.5 (70) %; in assay [3] (1 mg/mL intra-tracheal), 80%. Also, the “Neutrophil numbers in BALF, % inhibition” value in assay [4] (0.05 mg/mL intra-tracheal, pre-dose time 2 hr) was 2.5 (19) %; in assay [4] (0.2 mg/mL intra-tracheal, pre-dose time 2 hr), 1.4 (53) %; in assay [4] (setting [5]) it was 45%; in assay [4] (0.2 mg/mL intra-tracheal, pre-dose time 12 h), 23%; in assay [4] (1.0 mg/mL intra-tracheal, pre-dose time 2 hr) it was 68%. Moreover, the “Neutrophil numbers in BALF (mean ± SEM)” value in assay [4] (setting [5]) is 9.4 ± 2.0 ×10^5/mL.
